According to patent US8835375B2 (Applied Nanosystems B.V., priority 2006, dated 2014):
Read-outs that look alike come from different tables or passages of the source. Each block holds one molecule with its values, some of them ahead of it. Non-standard residues stand in square brackets, D forms with d. No end group written: not given here. Abu = CC[C@H](N)C(=O)O

How the values were obtained:
[1] = proteolytic resistance in pig kidney homogenate; format: in vitro ADME; settings: for metabolised at 3 h, 0.2 μmol angiotensin/mg kidney homogenate / half-life / half-life at 0.2 μmol/mg kidney homogenate: pig; for metabolised at 3 h, 0.2 μmol angiotensin/mg kidney homogenate / half-life at 0.2 μmol/mg kidney homogenate: pig kidney homogenate; for metabolised at 3 h, 0.2 μmol angiotensin/mg kidney homogenate: read-out: Degradation after 3 h (%)
Procedure: (§1) Angiotensin (wildtype or cyclised analogs, chemically produced [Cyc 4-7] Ang(1-7) or biologically produced [Cyc 4-7] Ang(1-8)) was added to homogenates of pig liver (0.2 μmol angiotensin/mg liver homogenate), pig kidney (0.2 μmol angiotensin/mg kidney homogenate), pig pancreas (0.8 μmol angiotensin/mg pancreas homogenate) or plasma (1 μmol angiotensin/ml) and incubated at 37° C., pH 7.4 or pH 5, for different time periods up to 30 hours. The enzymatic reaction was stopped by 100° C. for 5 min. The remaining amount of intact angiotensin was determined by RP-HPLC with C18-column, mobile phase gradient and 214 nm detection.

[2] = proteolytic resistance in plasma; format: in vitro ADME; settings: pH 7.4, 37° C.; for metabolised at 3 h, 1 μmol/ml: read-out: Degradation after 3 h (%)
Procedure: as §1

[3] = proteolytic resistance in pig pancreas homogenate; format: in vitro ADME; settings: for metabolised at 3 h, 0.8 μmol angiotensin/mg pancreas homogenate: read-out: Degradation after 3 h (%)
Procedure: as §1

[4] = proteolytic resistance in pig liver homogenate; format: in vitro ADME; settings: for metabolised at 3 h, 0.2 μmol angiotensin/mg liver homogenate / half-life / half-life at 0.2 μmol/mg liver homogenate: pig; for metabolised at 3 h, 0.2 μmol angiotensin/mg liver homogenate / half-life at 0.2 μmol/mg liver homogenate: pig liver homogenate; for metabolised at 3 h, 0.2 μmol angiotensin/mg liver homogenate: read-out: Degradation after 3 h (%)
Procedure: as §1

[5] = biological target: T1, Angiotensin Converting Enzyme (ACE) from Porcine kidney (Sus scrofa, UniProt F1RRW5); test: resistance against angiotensin converting enzyme (ACE); format: in vitro ADME; settings: 50 μM peptide; for breakdown by ACE: 37° C., pH 8.3
T1 construct: Angiotensin Converting Enzyme (ACE) from Porcine kidney, SIGMA; purchased SIGMA; host or cells: porcine kidney (tissue-derived)
T1 sequence (F1RRW5 34-1309): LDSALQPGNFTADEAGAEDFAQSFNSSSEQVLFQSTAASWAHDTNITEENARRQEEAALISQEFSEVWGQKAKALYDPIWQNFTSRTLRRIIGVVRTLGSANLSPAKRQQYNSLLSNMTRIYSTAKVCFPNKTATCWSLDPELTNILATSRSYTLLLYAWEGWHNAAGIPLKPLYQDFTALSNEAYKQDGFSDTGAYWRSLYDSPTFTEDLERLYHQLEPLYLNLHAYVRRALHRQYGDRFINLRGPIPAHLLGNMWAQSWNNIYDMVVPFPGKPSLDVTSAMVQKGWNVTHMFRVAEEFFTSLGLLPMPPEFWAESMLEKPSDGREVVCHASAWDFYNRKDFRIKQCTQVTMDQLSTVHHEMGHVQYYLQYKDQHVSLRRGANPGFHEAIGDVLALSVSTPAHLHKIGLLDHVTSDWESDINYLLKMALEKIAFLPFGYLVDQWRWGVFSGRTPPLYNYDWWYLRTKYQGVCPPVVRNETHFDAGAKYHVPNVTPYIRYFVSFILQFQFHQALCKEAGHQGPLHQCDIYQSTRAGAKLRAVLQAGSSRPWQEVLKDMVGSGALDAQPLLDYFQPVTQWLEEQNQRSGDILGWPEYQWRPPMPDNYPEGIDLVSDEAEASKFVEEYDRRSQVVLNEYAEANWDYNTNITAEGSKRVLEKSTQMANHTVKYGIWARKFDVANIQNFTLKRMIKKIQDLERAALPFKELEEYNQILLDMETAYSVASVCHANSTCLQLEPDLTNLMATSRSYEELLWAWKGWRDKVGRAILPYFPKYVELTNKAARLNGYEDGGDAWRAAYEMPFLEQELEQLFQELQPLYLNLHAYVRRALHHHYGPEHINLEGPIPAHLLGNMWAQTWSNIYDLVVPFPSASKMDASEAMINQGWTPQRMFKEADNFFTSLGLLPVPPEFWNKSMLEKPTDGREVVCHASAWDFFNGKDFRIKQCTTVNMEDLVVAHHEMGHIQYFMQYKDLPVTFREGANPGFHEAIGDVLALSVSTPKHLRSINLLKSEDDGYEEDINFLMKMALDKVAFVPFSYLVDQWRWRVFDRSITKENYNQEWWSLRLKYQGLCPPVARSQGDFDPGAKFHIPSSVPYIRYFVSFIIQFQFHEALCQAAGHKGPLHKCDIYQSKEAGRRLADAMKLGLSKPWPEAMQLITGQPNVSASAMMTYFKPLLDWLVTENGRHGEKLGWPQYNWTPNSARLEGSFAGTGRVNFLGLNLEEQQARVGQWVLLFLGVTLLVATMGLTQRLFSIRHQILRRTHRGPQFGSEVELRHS
Procedure: Angiotensin Converting Enzyme (ACE) from Porcine kidney, SIGMA, was used at 4 nM final concentration, FIGS. 2A and 2B, or at 8 nM final concentration, FIGS. 2C and 2D. Natural Ang(1-7) was purchased from Bachem. All experiments were performed in duplicate in a waterbath at 37° C., incubations were performed in a buffer containing 100 mM Tris-HCl, 300 mm NaCl, 10 μM Zn, pH 8.3. Thioether-ring-containing angiotensin was obtained by bacterial production using L. lactis containing the nisin modification and transporter enzymes, NisBTC. Natural angiotensin(1-7), lanthionine-containing angiotensin(1-7) and methyllanthionine-containing angiotensin(1-7) were each used at a concentration of 50 μM. Both the lanthionine and the methyllanthionine variant had the thioether bridge between positions 4 and 7. The reaction was stopped by 100° C. for 5 minutes and put on ice. Samples were centrifuged for 10 min at 14000 rpm at 4° C. and quantified by RP-HPLC. Identification of the HPLC peaks was performed using Maldi TOF mass spectrometry. All points are the average of two measurements.

[6] = in vivo stability during continuous intravenous infusion in the rat (Maldi TOF of plasma); design: species or system Sprague Dawley rat; settings: i.v. infusion 1 mL/hour of 100 μM of each peptide together, sample taken at 120 min
Procedure: Rats (Sprague Dawley) were infused during 2 hours at a speed of 1 mL/hour with a solution containing simultaneously two compounds: both 100 μM natural Ang(1-7) as well as 100 μM methyllanthionine-containing angiotensin(1-7) with the thioether bridge between positions 4 and 7. Methyllanthionine-containing angiotensin(1-7) was prepared using L. lactis expressing lantibiotic enzymes as described in example 1. Maldi TOF analyses were performed on plasma samples as described in example 3. Undiluted sample (upper spectrum, mass peak of 826.06 Da at the arrow) and 100-fold diluted sample (lower spectrum, mass peak of 826.47 Da at the arrow) both gave a peak of the right mass, i.e. corresponding to intact methyllanthionine-containing angiotensin(1-7) (Theoretical mass M+H^+ equals 825.9758). […] In a control experiment mixing natural angiotensin(1-7) ex vivo with rat plasma, allowed subsequent detection of natural angiotensin(1-7) (not shown). Experimental details are mentioned in the text of example 3.
A male Sprague Dawley rat was kept under O2/Isoflurane (1.5-2%) narcosis throughout the study. A jugular vein catheter was applied and connected to a syringe containing 0.9% physiological salt solution. The syringe was mounted onto an infusion pump and the flow rate set to 1 mL/hour. […]

[7] = tested on: Angiotensin Converting Enzyme (ACE); test: Angiotensin Converting Enzyme (ACE) from Porcine kidney, SIGMA, 8 nM in 100 mM Tris-HCl, 300 mm NaCl, 10 μM Zn, pH 8.3; settings: 37° C.
[8] = tested on: Angiotensin Converting Enzyme (ACE); test: Angiotensin Converting Enzyme (ACE) from Porcine kidney, SIGMA, 4 nM in 100 mM Tris-HCl, 300 mm NaCl, 10 μM Zn, pH 8.3; settings: 37° C., up to 26 hour
ACE = test: In vivo; settings: cited from earlier work
[9] = pH 7.4, versus linear angiotensin(1-7)
[10] = tissue homogenate, pH 7.4, 37° C.
[11] = pig, pig pancreas homogenate, pH 5.0, 37° C.
[12] = pig, pig pancreas homogenate, pH 7.4, 37° C.

Molecule: CC[C@H](C)[C@H](NC(=O)[C@H](Cc1ccc(O)cc1)NC(=O)[C@@H](NC(=O)[C@H](CCCNC(=N)N)NC(=O)[C@@H](N)CC(=O)O)C(C)C)C(=O)N[C@@H](Cc1cnc[nH]1)C(=O)N1CCC[C@H]1C(=O)N[C@@H](Cc1ccccc1)C(=O)O [Ang(1-8), Asp-Arg-Val-Tyr-Ile-His-Pro-Phe, reference compound]
metabolised at 3 h, 0.2 μmol angiotensin/mg kidney homogenate ([1]; pH 7.4, 37° C.): 100%
metabolised at 3 h, 0.8 μmol angiotensin/mg pancreas homogenate [3, 12]: 70%
metabolised at 3 h, 0.2 μmol angiotensin/mg liver homogenate ([4]; pH 7.4, 37° C.): 98%

Molecule: CC[C@H](C)[C@H](NC(=O)[C@H](Cc1ccc(O)cc1)NC(=O)[C@@H](NC(=O)[C@H](CCCNC(=N)N)NC(=O)[C@@H](N)CC(=O)O)C(C)C)C(=O)N[C@@H](Cc1c[nH]cn1)C(=O)N1CCC[C@H]1C(=O)O [Ang(1-7), DRVYIHP, reference compound]
formation of Ang(1-5) by incubation with ACE ([5]; 4 nM ACE): resulted in angiotensin(1-5) formation
breakdown by ACE ([5]; 4 nM ACE, 26 hour incubation): completely broken down
formation of Ang(1-5) by incubation with ACE ([5]; 8 nM ACE): emergence of angiotensin(1-5)
breakdown by ACE ([5]; 8 nM ACE): rapidly broken down
half-life at 0.2 μmol/mg kidney homogenate ([1]; pH 5.0, 37° C.): 0.467 h
metabolised at 3 h, 0.2 μmol angiotensin/mg kidney homogenate ([1]; pH 5.0, 37° C.): 98%
half-life at 0.2 μmol/mg kidney homogenate ([1]; pH 7.4, 37° C.): 0.0833 h
metabolised at 3 h, 0.2 μmol angiotensin/mg kidney homogenate ([1]; pH 7.4, 37° C.): 100%
half-life at 1 μmol/ml [2]: 2.77 h
metabolised at 3 h, 1 μmol/ml [2]: 55%
detection of intact peptide in plasma by Maldi TOF [6]: not detected at all
Half-life (min) ([3]; pH 5.0, 37° C.): ∞
metabolised at 3 h, 0.8 μmol angiotensin/mg pancreas homogenate [3, 11]: 16%
half-life at 0.8 μmol/mg pancreas homogenate [3, 12]: 1.35 h
metabolised at 3 h, 0.8 μmol angiotensin/mg pancreas homogenate [3, 12]: 81%
half-life at 0.2 μmol/mg liver homogenate ([4]; pH 5.0, 37° C.): 2.55 h
metabolised at 3 h, 0.2 μmol angiotensin/mg liver homogenate ([4]; pH 5.0, 37° C.): 56%
half-life at 0.2 μmol/mg liver homogenate ([4]; pH 7.4, 37° C.): 0.533 h
metabolised at 3 h, 0.2 μmol angiotensin/mg liver homogenate ([4]; pH 7.4, 37° C.): 100%

Molecule: DRV[Abu]IHA [methyllanthionine-containing Ang(1-7)]
formation of Ang(1-5) by incubation with ACE ([5]; 4 nM ACE): did not lead to the appearance of Ang(1-5)
breakdown by ACE ([5]; 4 nM ACE, 26 hour incubation): no degradation
detection of intact peptide in plasma by Maldi TOF [6]: detected

More lines, main results first:

increase of half-life by 4,7-cyclisation [1, 9]: 6 fold
metabolised at 3 h, 0.2 μmol angiotensin/mg kidney homogenate ([1]; pH 5.0, 37° C.): 4%
metabolised at 3 h, 0.2 μmol angiotensin/mg kidney homogenate ([1]; pH 7.4, 37° C.): 91%
half-life ([1]; tissue homogenate, pH 5.0, 37° C., cell printed in hours): > 24 h
half-life [1, 10]: 0.533 h
half-life [2]: 15.4 h
metabolised at 3 h, 1 μmol/ml [2]: 15%
Half-life (min) ([3]; pH 5.0, 37° C.): ∞
increase of half-life by 4,7-cyclisation [3, 9]: more than 18 fold
metabolised at 3 h, 0.8 μmol angiotensin/mg pancreas homogenate [3, 11]: 6%
metabolised at 3 h, 0.8 μmol angiotensin/mg pancreas homogenate [3, 12]: 4%
half-life ([3]; pig, tissue homogenate, pH 7.4, 37° C., cell printed in hours): > 24 h
increase of half-life by ring introduction ([4]; pH 5, versus linear angiotensin(1-7)): 5 fold
increase of half-life by 4,7-cyclisation [4, 9]: 2 fold
metabolised at 3 h, 0.2 μmol angiotensin/mg liver homogenate ([4]; pH 5.0, 37° C.): 8%
metabolised at 3 h, 0.2 μmol angiotensin/mg liver homogenate ([4]; pH 7.4, 37° C.): 82%
half-life ([4]; tissue homogenate, pH 5.0, 37° C.): 11.8 h
half-life [4, 10]: 1.13 h
Molecule: CC[C@H](C)[C@@H]1NC(=O)[C@H](NC(=O)[C@@H](NC(=O)[C@H](CCCNC(=N)N)NC(=O)[C@@H](N)CC(=O)O)C(C)C)CSC[C@@H](C(=O)O)NC(=O)[C@H](Cc2c[nH]cn2)NC1=O [[Cyc^4-7]Ang(1-7), Asp-Arg-Val-Ala-Ile-His-Ala]

half-life ([1]; pH 7.4, 37° C.): 0.117 h
metabolised at 3 h, 0.2 μmol angiotensin/mg kidney homogenate ([1]; pH 7.4, 37° C.): 100%
half-life ([3]; pig, pH 7.4, 37° C.): 8.05 h
metabolised at 3 h, 0.8 μmol angiotensin/mg pancreas homogenate [3, 12]: 21%
half-life ([4]; pH 7.4, 37° C.): 1.12 h
metabolised at 3 h, 0.2 μmol angiotensin/mg liver homogenate ([4]; pH 7.4, 37° C.): 100%
Molecule: CC[C@H](C)[C@@H]1NC(=O)C(NC(=O)[C@@H](NC(=O)[C@H](CCCNC(=N)N)NC(=O)[C@@H](N)CC(=O)O)C(C)C)C(C)SC[C@@H](C(=O)N[C@@H](Cc2ccccc2)C(=O)O)NC(=O)[C@H](Cc2c[nH]cn2)NC1=O (stereo partly drawn) [[Cyc^4-7]Ang(1-8), Asp-Arg-Val-Abu-Ile-His-Ala-Phe]

not cleaved [7]: no breakdown observed
Molecule: DRVAIHA

cleaved bond [8]: I5-H6, major
cleaved bond [7]: I5-H6, major
Molecule: DRVYIHP
cleaved bond (ACE): I5-H6
